Results as given in patent US11478461B2, “[1.1.1] bicyclo compounds as indoleamine 2,3-dioxygenase inhibitors” (Merck Sharp & Dohme Corp., priority 2018, dated 2022).

Experiments:
IDO1 [1] = molecular target: T1, IDO1 (Homo sapiens, UniProt P14902); experiment: IDO1 Cellular Assay in Hela Cells Stimulated with IFNγ; format: cell-based; conditions: IFNγ 100 ng/mL, 300 uM L-tryptophan, about 48 hours, fluorescence readout, read-out: IDO1 HELA Cell Assay, IC50
In short: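 HeLa cells stimulated with 100 ng/mL IFNγ, supplemented with 300 uM L-tryptophan, incubated 48 h at 37° C with ten 3-fold compound dilutions. Unstimulated cells served as Max-E control. Kynurenine detected by fluorescence (ex 400/em 510 nm) after overnight methyl isonipecotate reaction; IC50 by four-parameter logistic fit.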

IDO1 [2] = molecular target: T1, IDO1; experiment: IDO1 Human whole blood Assay; format: cell-based; parameters: Human whole blood was drawn in sodium heparin coated tubes from healthy internal donors; from tissue; host or cells: Human whole blood from healthy donors, stimulated with LPS and IFNγ; conditions: LPS and IFNγ 100 ng/mL, 18 h, kynurenine by LC/MS/MS
Procedure: Compounds to be tested were serially diluted in ten 3-fold steps in DMSO starting from 10 mM. 3 μL of compound dilutions or DMSO alone were then dispensed from the dilution plate into a polypropylene 96-well assay plate containing 97 μL of RPMI using an Echo 555 acoustic liquid handler (Labcyte). LPS and IFNγ was prepared in RPMI to a 10× of final conc. (1000 ng/mL), final concentration is 100 ng/mL.
Human whole blood was drawn in sodium heparin coated tubes from healthy internal donors. Two hundred forty μL of blood was transferred to each of the wells of a v-bottom 96 well plate. Thirty μL of compound was transferred from intermediate dilution plate, and incubated for 15 min. Thirty μL from stimulants was then transferred to blood and mixed thoroughly. Plate was covered with breathable membrane and incubated at 37° C. for overnight (18 h).
On day 2 isotope labeled standard of kynurenine and tryptophan was made in water at 10× concentration and 30 μL was added to the blood at 3 μM final concentration. The assay plates were centrifuged at 300×G for 10 min with no brake to separate plasma from red blood cells. Sixty μL of plasma samples was removed without disturbing red blood cells. Plasma was diluted with RPMI in 1:1 ratio and proteins were precipitated out with two volume of acetonitrile. The plates were centrifuged at 4000×G for 60 min. Twenty μL of supernatant was carefully transferred to a 384 well plate containing 40 μL of 0.1% formic acid in water and analyzed by LC/MS/MS.
LC/MS/MS analyses were performed using Thermo Fisher's LX4-TSQ Quantum Ultra system. This system consists of four Agilent binary high-performance liquid chromatography (HPLC) pumps and a TSQ Quantum Ultra triple quadruple MS/MS instrument. For each sample, 5 μL were injected onto an Atlantis T3 column (2.1 mm×150 mm, 3 μm particle size) from Waters. The mobile phase gradient pumped at 0.8 mL/min was used to elute the analytes from the column at 25° C. The elution started at 0% B increasing linearly to 25% B at 6.5 min, holding at 25% for 1 min, re-equilibrating to 10 min. Mobile phase A consisted of 0.1% formic acid in water. Mobile phase B consisted of 0.1% of formic acid in acetonitrile. Data was acquired in positive mode using a HESI interface. The operational parameters for the TSQ Quantum Ultra instrument were a spray voltage of 4000 V, capillary temperature of 380° C., vaporizer temperature 400° C., shealth gas 60 arbitrary units, Aux gas 20 arbitrary units, tube lens 85 and collision gas 1.2 mTorr. SRM chromatograms of kynurenine (Q1: 209.2>Q3:94.0) and internal standard (Q1: 215.3>Q3:98.2) were collected for 90 sec. The peak area was integrated by Xcalibur Quan software. The ratios between the kynurenine generated in the reaction and 2D6-Kynurenine spiked-in internal standard were used to generate percentage inhibition and IC50 values. Compounds were titrated and IC50's were calculated by 4 parameter sigmoidal curve fitting formula.
The biological activity data of selective compounds using the IDO1 human whole blood assay described above are summarized in the table below.

T1 sequence (P14902 whole entry): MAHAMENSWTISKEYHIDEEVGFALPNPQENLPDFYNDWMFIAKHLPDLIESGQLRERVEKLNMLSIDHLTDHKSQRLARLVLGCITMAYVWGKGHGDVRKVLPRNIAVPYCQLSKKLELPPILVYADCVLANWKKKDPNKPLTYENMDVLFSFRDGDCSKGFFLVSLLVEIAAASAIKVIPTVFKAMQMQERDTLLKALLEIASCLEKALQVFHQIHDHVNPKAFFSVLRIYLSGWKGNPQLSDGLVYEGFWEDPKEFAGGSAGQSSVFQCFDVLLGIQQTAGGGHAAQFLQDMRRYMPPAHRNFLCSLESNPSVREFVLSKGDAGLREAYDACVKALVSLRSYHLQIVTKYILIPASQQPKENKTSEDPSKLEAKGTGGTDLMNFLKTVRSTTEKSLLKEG

Compound	IC50 (IDO1 [1])	IC50 (IDO1 [2])
CC(C(=O)Nc1ccc(F)cc1)C12CC(NC(=O)c3cccc(Cl)c3)(C1)C2 (single isomer, unassigned) [Example 1, 3-Chloro-N-(3-(1-((4-fluorophenyl)amino)-1-oxopropan-2-yl)bicyclo[1.1.1]pentan-1-yl)benzamide]	3.05 nM	113 nM
CC(C(=O)Nc1ccc(Cl)nc1)C12CC(NC(=O)c3cccc(Cl)c3)(C1)C2 (single isomer, unassigned) [Example 17, 3-chloro-N-(3-(1-((6-chloropyridin-3-yl)amino)-1-oxopropan-2-yl)bicyclo[1.1.1]pentan-1-yl)benzamide]	5.26 nM	179 nM
O=C(NC12CC(C3(NC(=O)c4ccc(F)cc4)CC3)(C1)C2)c1ccc(Cl)c(Cl)c1 [Example 24, 3,4-Dichloro-N-(3-(1-(4-fluorobenzamido)cyclopropyl)bicyclo[1.1.1]pentan-1-yl)benzamide]	4.13 nM	401 nM
O=C(NC12CC(C3(C(=O)Nc4ccc(F)cc4)CC3)(C1)C2)c1ccc(Cl)c(Cl)c1 [Example 100, 3,4-Dichloro-N-(3-(1-((4-fluorophenyl)carbamoyl)cyclopropyl)bicyclo[1.1.1]pentan-1-yl)benzamide]	3.35 nM	454 nM
C[C@H](C(=O)Nc1ccc(F)cc1)C12CC(NC(=O)OC3CCCC3)(C1)C2 [Example 77, cyclopentyl (S)-(3-(1-((4-fluorophenyl)amino)-1-oxopropan-2-yl)bicyclo[1.1.1]pentan-1-yl)carbamate]	–	452 nM
CC(C(=O)Nc1ccc(F)cc1)C12CC(NC(=O)c3ccc(Cl)c(Cl)c3)(C1)C2 (single isomer, unassigned) [Example 8, 3,4-dichloro-N-(3-(1-((4-fluorophenyl)amino)-1-oxopropan-2-yl)bicyclo[1.1.1]pentan-1-yl)benzamide]	3.1 nM	781 nM
CC(C(=O)Nc1ccc(F)nc1)C12CC(NC(=O)c3ccc(Cl)c(Cl)c3)(C1)C2 (single isomer, unassigned) [Example 14, 3,4-dichloro-N-(3-(1-((6-fluoropyridin-3-yl)amino)-1-oxopropan-2-yl)bicyclo[1.1.1]pentan-1-yl)benzamide]	6.16 nM	406 nM
CC(C(=O)Nc1ccc(Cl)nc1)C12CC(NC(=O)c3ccc(Cl)c(Cl)c3)(C1)C2 (single isomer, unassigned) [Example 15, 3,4-dichloro-N-(3-(1-((6-chloropyridin-3-yl)amino)-1-oxopropan-2-yl)bicyclo[1.1.1]pentan-1-yl)benzamide]	4.46 nM	1100 nM
C[C@H](C(=O)Nc1ccc(F)cc1)C12CC(NC(=O)c3cc(F)c(F)c(F)c3)(C1)C2 [Example 145, (S)-3,4,5-trifluoro-N-(3-(1-((4-fluorophenyl)amino)-1-oxopropan-2-yl)bicyclo[1.1.1]pentan-1-yl)benzamide]	3.04 nM	49 nM
Cc1cc(C(=O)NC23CC([C@@H](C)C(=O)Nc4ccc(F)cc4)(C2)C3)ccc1Cl [Example 37, 4-chloro-N-[3-[(1R)-2-(4-fluoroanilino)-1-methyl-2-oxo-ethyl]-1-bicyclo[1.1.l]pentanyl]-3-methyl-benzamide]	135 nM	–
C[C@@H](C(=O)Nc1cnc(Cl)c(F)c1)C12CC(NC(=O)c3ccc(Cl)c(Cl)c3)(C1)C2 [Example 89, (R)-3,4-dichloro-N-(3-(1-((6-chloro-5-yl)amino)-1-oxopropan-2-yl)bicyclo[1.1.1]pentan-1-yl)benzamide]	65.4 nM	–
C[C@H](C(=O)Nc1cncc(Cl)c1)C12CC(NC(=O)c3ccc(Cl)c(Cl)c3)(C1)C2 [Example 94, (S)-3-chloro-5-(2-(3-(3,4-dichlorobenzamido)bicyclo[1.1.1]pentan-1-yl)propanamido)pyridin-1-ium 2,2,2-trifluoroacetate]	7.78 nM	–

Further compounds by falling IC50 (IDO1 [1]), results first:

IC50 (IDO1 [1])	IC50 (IDO1 [2])	Compound
2.51 nM	328 nM	C[C@H](C(=O)Nc1ccc(F)cc1)C12CC(NC(=O)c3cc(Cl)ccc3F)(C1)C2 [Example 56, 5-chloro-2-fluoro-N-[3-[(1S)-2-(4-fluoroanilino)-1-methyl-2-oxo-ethyl]-1-bicyclo[1.1.1]pentanyl]benzamide]
2.5 nM	53.3 nM	C[C@H](C(=O)Nc1ccc(F)cc1)C12CC(NC(=O)c3ccc(Cl)cc3F)(C1)C2 [Example 52, 4-chloro-2-fluoro-N-[3-[(1S)-2-(4-fluoroanilino)-1-methyl-2-oxo-ethyl]-1-bicyclo[1.1.1]pentanyl]benzamide]
2.35 nM	–	C[C@@H](C(=O)Nc1ccc(F)cc1)C12CC(NC(=O)c3cc(F)cc(Cl)c3)(C1)C2 [Example 40, 3-chloro-5-fluoro-N-[3-[(1R)-2-(4-fluoroanilino)-1-methyl-2-oxo-ethyl]-1-bicyclo[1.1.1]pentanyl]benzamide]
2.14 nM	138 nM	Cc1ccc(C(=O)NC23CC([C@@H](C)C(=O)Nc4ccc(F)cc4)(C2)C3)cc1Cl [Example 36, 3-chloro-N-[3-[(1R)-2-(4-fluoroanilino)-1-methyl-2-oxo-ethyl]-1-bicyclo[1.1.1]pentanyl]-4-methyl-benzamide]
2.12 nM	44.7 nM	O=C(NC12CC(C3(C(=O)Nc4ccc(F)cc4)CCC3)(C1)C2)c1ccc(Cl)c(Cl)c1 [Example 5, 3,4-Dichloro-N-(3-(1-((4-fluorophenyl)carbamoyl)cyclobutyl)bicyclo[1.1.1]pentan-1-yl)benzamide]
2.12 nM	139 nM	Cc1cc(C(=O)NC23CC([C@@H](C)C(=O)Nc4ccc(F)cc4)(C2)C3)ccc1F [Example 46, 4-fluoro-N-[3-[(1R)-2-(4-fluoroanilino)-1-methyl-2-oxo-ethyl]-1-bicyclo[1.1.l]pentanyl]-3-methyl-benzamide]
1.57 nM	525 nM	CC(C(=O)Nc1ccc(Cl)c(F)c1)C12CC(NC(=O)c3cccc(Cl)c3)(C1)C2 (single isomer, unassigned) [Example 11, 3-chloro-N-(3-(1-((4-chloro-3-fluorophenyl)amino)-1-oxopropan-2-yl)bicyclo[1.1.1]pentan-1-yl)benzamide]
1.55 nM	924 nM	CC(C(=O)Nc1ccc(F)cc1)C12CC(NC(=O)c3ccc(Cl)c(Cl)c3)(C1)C2 (single isomer, unassigned) [Example 9, 3,4-dichloro-N-(3-(1-((4-fluorophenyl)amino)-1-oxopropan-2-yl)bicyclo[1.1.1]pentan-1-yl)benzamide]
1.05 nM	48.2 nM	CC(C(=O)Nc1ccc(Cl)cc1)C12CC(NC(=O)c3cccc(Cl)c3)(C1)C2 (single isomer, unassigned) [Example 7, 3-Chloro-N-(3-(1-((4-chlorophenyl)amino)-1-oxopropan-2-yl)bicyclo [1.1.1]pentan-1-yl) Benzamide]
